From US20260297542A1, “HERBICIDE RESISTANT PLANTS” (SYNGENTA CROP PROTECTION AG, priority 2023, published 2026)
Changes are numbered by the printed parent chain.

Legend:
Test in all cases: E. coli hemG growth inhibition by herbicide, AtPPO1 variant
Type in all cases: cell-based
Conditions in all cases: read-out: percentage growth inhibition
[1] = biological target: T1, AtPPO1 S305L (Arabidopsis thaliana, UniProt P55826, S305L)
T1 construct: expressed in transfected cells; host or cells: E. coli BL21(DE3) hemG (pET24a, T7 promoter)
T1 sequence (P55826 35-537 S305L): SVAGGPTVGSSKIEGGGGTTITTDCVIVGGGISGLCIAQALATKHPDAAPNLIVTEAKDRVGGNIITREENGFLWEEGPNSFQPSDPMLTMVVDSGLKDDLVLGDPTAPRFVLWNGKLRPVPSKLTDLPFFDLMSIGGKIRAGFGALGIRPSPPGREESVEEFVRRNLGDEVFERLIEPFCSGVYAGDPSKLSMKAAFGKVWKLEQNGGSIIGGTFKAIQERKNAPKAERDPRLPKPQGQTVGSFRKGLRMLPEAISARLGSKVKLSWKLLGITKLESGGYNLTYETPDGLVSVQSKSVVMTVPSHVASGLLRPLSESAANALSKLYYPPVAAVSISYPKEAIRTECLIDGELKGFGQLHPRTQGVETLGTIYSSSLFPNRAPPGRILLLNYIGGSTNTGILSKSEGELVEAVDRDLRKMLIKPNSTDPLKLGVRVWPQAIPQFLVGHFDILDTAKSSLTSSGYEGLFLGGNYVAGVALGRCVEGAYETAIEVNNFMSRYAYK
Text: (§1) A pET24a plasmid containing a DNA sequence encoding a variant of PPO1 derived from Arabidopsis thaliana (AtPPO1), codon-optimised for expression in E. coli and under control of a T7 promoter, was synthesised by Twist Bioscience (SEQ ID NO:3). This plasmid was used as the basis of a Site Saturation Variant Library (SSVL) that substituted the codons at 352 amino acid positions for codons that encoded one of the other 19 amino acids, or removed the codon altogether, resulting in a translation product with a deletion at that position.
(§2) The SSVL was batch-transformed by electroporation into an E. coli BL21(DE3) hemG strain with the hemG gene replaced by CmR conferring resistance to chloramphenicol and spread onto LA supplemented with 50 μg/mL kanamycin, 25 μg/mL chloramphenicol and 20 μg/mL hematin. Each batch consisted of all the plasmids that contained variants at two sites.
(§3) Colonies from batch transformations were inoculated into 500 μL of Terrific broth supplemented with 50 μg/mL kanamycin, 25 μg/mL chloramphenicol and 20 μg/mL hematin in 96-deepwell blocks. Cultures were grown for 24 hours at 37° C. with shaking at 250 rpm.
(§4) Overnight cultures were centrifuged and the cell pellets resuspended with 500 μL of Terrific broth. The resuspended cultures were used at a ratio of 1:100 to inoculate a fresh 96-deepwell block containing 500 μL of Terrific broth supplemented with 0.1 mM IPTG, 50 μg/mL kanamycin, 25 μg/mL chloramphenicol and 6.25 ppm of herbicide […] or E or 0.78 ppm herbicide B or DMSO. Assay cultures were grown for 24 hours at 37° C. with shaking at 250 rpm with the OD600 being measured at 24 hours post inoculation. Strains that grew in both DMSO and herbicide were determined to be herbicide tolerant with the percentage of growth inhibition being calculated as below: […]

[2] = biological target: T2, AtPPO1 Y426V (Arabidopsis thaliana, UniProt P55826, Y426V)
T2 construct: expressed in transfected cells; host or cells: E. coli BL21(DE3) hemG (pET24a, T7 promoter)
T2 sequence (P55826 35-537 Y426V): T1 sequence (P55826 35-537 S305L) with L271S, Y392V
Text: as §1, §2, §3, §4

[3] = biological target: T3, AtPPO1 K173H (Arabidopsis thaliana, UniProt P55826, K173H)
T3 construct: expressed in transfected cells; host or cells: E. coli BL21(DE3) hemG (hemG replaced by CmR), pET24a plasmid
T3 sequence (P55826 35-537 K173H): T1 sequence (P55826 35-537 S305L) with K139H, L271S
Text: as §1, §2, §3, §4

[4] = biological target: T4, AtPPO1 L424V (Arabidopsis thaliana, UniProt P55826, L424V)
T4 construct: expressed in transfected cells; host or cells: E. coli BL21(DE3) hemG (pET24a, T7 promoter)
T4 sequence (P55826 35-537 L424V): T1 sequence (P55826 35-537 S305L) with L271S, L390V
Text: as §1, §2, §3, §4

Structure (SMILES) | inhibition at 6.25 ppm [1] | inhibition at 6.25 ppm [2] | inhibition at 6.25 ppm [3] | inhibition at 6.25 ppm [4] | inhibition at 0.78 ppm [1] | inhibition at 0.78 ppm [2] | inhibition at 0.78 ppm [3] | inhibition at 0.78 ppm [4]
CC(C)N(C)S(=O)(=O)NC(=O)c1cc(-n2c(=O)cc(C(F)(F)F)n(C)c2=O)c(F)cc1Cl [Herbicide E, saflufenacil] | 39% | 7% | 55% | 66% | – | – | – | –
C#CCN1C(=O)C(F)(F)Oc2cc(F)c(-n3c(=O)n(C)c(=S)n(C)c3=O)cc21 [Herbicide B, trifludimoxazin] | – | – | – | – | 26% | 5% | 29% | 19%
CCOC(=O)[C@]1(C)CC(c2cc(-n3c(=O)n(C)c(=S)n(C)c3=O)c(F)cc2Cl)=NO1 [Herbicide D, ethyl (5S)-3-[2-chloro-5-(3,5-dimethyl-2,6-dioxo-4-thioxo-1,3,5-triazinan-1-yl)-4-fluoro-phenyl]-5-methyl-4H-isoxazole-5-carboxylate] | 14% | 16% | 34% | 33% | – | – | – | –
